Test results: patent publication US20030083483A1, “Molecular interaction sites of vimentin RNA and methods of modulating the same” (priority 1999, published 2003)
pKd: −log10 of the molar value. Read-outs that look alike come from different tables or passages of the source.

Experiments:
[1] = tested on: protein synthesis (luciferase reporter); experiment: transcription/translation assay based on expression of a luciferase plasmid; assay type: biochemical; details: unit printed only in the Paromomycin cell and b169
Procedure: (§1) The compounds are screened for binding affinity using MASS or conventional high-throughput functional screens. The best scoring compounds from docking a 256-member library against the 16S A-site ribosomal RNA structure are shown in the table 5 below. The MASS assay was performed with the 27-mer model RNA sequence of the 16S A-site whose NMR structure has been determined. The transcription/translation assay was based on expression of a luciferase plasmid.

[2] = target: 27-mer model RNA sequence of the 16S A-site; experiment: MASS mass spectrometry binding assay with 16S A-site 27-mer RNA; parameters: species or system prokaryotic
Procedure: as §1
A preferred first step of MASS screening involves mixing the RNA target (or targets) with a combinatorial library of ligands designed to bind to a specific site on the target molecule(s). Specific noncovalent complexes formed in solution between the target(s) and any library members are transferred into the gas phase and ionized by ESI. As described herein, from the measured mass difference between the complex and the free target, the identity of the binding ligand can be determined. The dissociation constant of the complex can be determined in two ways: if a ligand with a known binding affinity for the target is available, a relative Kd can be measured by using the known ligand as an internal control and measuring the abundance of the unknown complex to the abundance of the control, alternatively, if no internal control is available, Kd's can be determined by making a series of measurements at different ligand concentrations and deriving a Kd value from the “titration” curve.
In a direct determination of solution phase dissociation constants (Kd's) by mass spectrometry, ESI-MS measurements of a solution containing a fixed concentration of RNA at different concentrations of ligand were obtained. By measuring the ratio of bound:unbound RNA at varying ligand concentrations, the Kd was determined by 1/slope of the “titration curve”. The MS derived value of 110 nM is in good agreement with previously reported literature value of 200 nM.
All mass spectrometry experiments were performed using an Apex II 70e electrospray ionization Fourier transform ion cyclotron resonance mass spectrometer (Bruker Daltonics, Billerica) employing an actively shielded 7 tesla superconducting magnet. RNA solutions were prepared in 50 mM NH4OAc (pH 7), mixed 1:1 v:v with isopropanol to aid desolvation, and infused at a rate of […] using a syringe pump. Ions were formed in a modified electrospray source (Analytica, Branford) employing an off axis, grounded electrospray probe positioned ca. 1.5 cm from the metalized terminus of the glass desolvation capillary biased at 5000 V. A counter-current flow of dry […] gas heated to 225C was employed to assist in the desolvation process. Ions were accumulated in an external ion reservoir comprised of an RF-only hexapole, a skimmer cone, and an auxiliary electrode for 1000 ms prior to transfer into the trapped ion cell for mass analysis. Each spectrum was the result of the coaddition of 16 transients comprised of […] acquired over a 90,909 kHz bandwidth resulting in a 700 ms detection interval. All aspects of pulse sequence control, data acquisition, and post acquisition processing were performed using a Bruker Daltonics datastation running XMASS version 4.0 on a Silicon Graphics (San Jose, Calif.) R5000 computer.
Mass spectrometry experiments were performed in order to detect complex formation between a library containing five aminoglycosides (Sisomicin (Sis), Tobramycin (Tob), Bekanomycin (Bek), Paromomycin (PM), and Livodomycin (LV)) and two RNA targets simultaneously. Signals from the (M-5H+)^5− charge states of free 16S and 18S RNAs are detected at m/z 1801.515 and 1868.338, respectively. The mass spectrometric assay reproduces the known solution binding properties of aminoglycosides to the 16S A site model and an 18S A site model with a neutral mass linker. Consistent with the higher binding affinity of theses aminoglycosides for the 16S A-site relative to the 18S A-site, aminoglycoside complexes are observed only with the 16S rRNA target. […]

[3] = tested on: 18S A site model; experiment: ESI-FTICR mass spectrometric complex detection with 18S A-site model RNA; assay type: binding, eukaryotic; details: mixture of five aminoglycosides, 16S and 18S targets simultaneously
Procedure: Paromomycin, lividomycin (MW=761.354 Da), sisomicin (MW=447.269 Da), tobramycin (MW=467.2591 Da), and bekanamycin (MW=483.254 Da) were obtained from Sigma (St. Louis, Mo.) and ICN (Costa Mesa, Calif.) and were dissolved to generate 10 mM stock solutions. 2′ methoxy analogs of RNA constructs representing the prokaryotic (16S) rRNA and eukaryotic (18S) rRNA A-site were synthesized in house and precipitated twice from 1 M ammonium acetate following deprotection with ammonia (pH 8.5). The mass-tagged constructs contained an 18-atom mass tag (C12H2509) attached to the 5′-terminus of the RNA oligomer through a phosphodiester linkage.
All mass spectrometry experiments were performed using an Apex II 70e electrospray ionization Fourier transform ion cyclotron resonance mass spectrometer (Bruker Daltonics, Billerica) employing an actively shielded 7 tesla superconducting magnet. […]
Mass spectrometry experiments were performed in order to detect complex formation between a library containing five aminoglycosides (Sisomicin (Sis), Tobramycin (Tob), Bekanomycin (Bek), Paromomycin (PM), and Livodomycin (LV)) and two RNA targets simultaneously. Signals from the (M-5H+)^5− charge states of free 16S and 18S RNAs are detected at m/z 1801.515 and 1868.338, respectively. […]

SMILES: NC[C@@H]1O[C@H](O[C@H]2[C@@H](O)[C@H](O[C@@H]3[C@@H](O)[C@H](N)C[C@H](N)[C@H]3O[C@H]3O[C@H](CO)[C@@H](O)[C@H](O)[C@H]3N)O[C@@H]2CO)[C@H](N)[C@@H](O)[C@@H]1O [Paromomycin]
- Activity: Inhibition of protein synthesis in transcription/translation assay for luciferase reporter [1]: 0.3 µM
- pKd ([2]; 16S A site 27mer, ESI-MS titration, read-out: KD measured by mass spectrometry): 6.96
- pKd ([2]; 27-mer model RNA of the 16S A-site, unit printed only in the Paromomycin cell and b169, read-out: MASS KD): 6.30
- complexes detected with the 16S A site 27mer RNA ([2]; ESI-FTICR, mixture of five aminoglycosides, 16S and 18S targets simultaneously): High affinity complexes
- complexes with the 18S A site model [3]: absence
